{"source": "paper PMC8080595", "about": "“Discovery of a novel RORγ antagonist with skin-restricted exposure for topical treatment of mild to moderate psoriasis” (Scientific Reports, 2021)", "key": {"[1]": {"assay": "Liver microsomal stability, mouse", "assay_type": "in vitro ADME", "conditions": "liver microsomes, pH 7.4, read-out: Liver microsomal stability, t1/2, Mouse", "experimental": "The compound was mixed with 0.5 mg/ml human liver microsome (Thermal Fisher) at a final concentration of 1 µM in 100 mM potassium phosphate buffer, pH 7.4. The reactions were initiated by the addition of 1 mM NADPH. Samples in duplicate were incubated at 37 °C with mixing. 100 µL aliquots were transferred after 0, 5, 10, 30, 45, 60 minutes to a new tube with 300 µL acetonitrile, incubated on ice for 30 minutes, centrifuged at 1800×g at 4 °C for 10 minutes. The supernatants were transferred to glass vials subjected to LC/MS analysis. Peak areas were measured to calculate half-life according to the formula t1/2 = − 0.693/slope of linear regression analysis of ln [concentration] versus incubation time. Similar methods were applied to access mouse and rat liver microsomal stability of the compounds."}, "[2]": {"test_system": "IL-23-induced psoriasis-like skin inflammation mice", "assay": "IL-23-induced psoriasis-like skin inflammation mouse model, topical treatment", "assay_type": "in vivo", "conditions": "for IL17 / IL-6 / TNFα / Thickness of the back skin: day 8, Mean ± SEM, n = 10", "experimental": "Psoriasis was induced by intradermal injection of IL-23 on mouse skin as described by Rizzo et al.[19]. Three days later after shaving (day 1), two injections of IL-23 (0.5 µg protein per mouse) were performed on both sides of the dorsal skin (except naïve group) for 8 days. SHR168442 in Vaseline was topically applied daily starting three day before IL-23 injections, and then twice a day starting on the day of IL-23 injections. The mice were weighed daily, and the skin were scored daily on a scale from 0 to 4. At day 8, the skin thickness was measured in live mice with a caliper and the animal was sacrificed 3 h after the first topical application. The in-life portion of the study was carried out at Nanjing University (Nanjing, China). The experimental protocol used in this study was approved by IACUC in Nanjing, China. The experiments were conducted in accordance with the Guiding Principles for the Care and Use of Laboratory Animals and complied with the ARRIVE guidelines.\nIL-17A, IL-6 and TNFα were determined in plasma collected at day 8 using a cytometric bead array (BD Biosciences) following the vendor's instruction."}, "ADORA2A": {"biological_target": "T1, ADORA2A (Homo sapiens, UniProt P29274)", "T1 construct": "purchased DiscoverX (Eurofins) SAFETYscan47", "T1 sequence (P29274 whole entry)": "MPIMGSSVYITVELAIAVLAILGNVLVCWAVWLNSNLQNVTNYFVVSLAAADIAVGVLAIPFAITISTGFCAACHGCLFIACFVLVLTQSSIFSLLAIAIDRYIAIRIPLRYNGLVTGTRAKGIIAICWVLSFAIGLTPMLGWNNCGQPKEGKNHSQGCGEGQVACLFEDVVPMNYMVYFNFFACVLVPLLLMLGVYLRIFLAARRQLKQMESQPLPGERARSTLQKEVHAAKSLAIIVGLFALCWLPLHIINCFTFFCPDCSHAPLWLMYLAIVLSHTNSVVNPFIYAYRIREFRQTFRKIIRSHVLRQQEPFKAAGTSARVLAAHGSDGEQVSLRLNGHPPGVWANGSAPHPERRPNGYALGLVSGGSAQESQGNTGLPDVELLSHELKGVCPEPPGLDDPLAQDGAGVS", "assay": "SAFETYscan47 Calcium Flux", "assay_type": "cell-based", "conditions": "3 µM", "experimental": "To further profile any off-target activity, we counter-screened SHR168442 in SAFETYscan47 panel, compiled by DiscoverX based on the recommendation by major pharmaceutical companies. SHR168442 was screened at 3 µM in duplicates."}, "RORγ LBD": {"biological_target": "T2, RORγ LBD (Homo sapiens, UniProt P51449)", "T2 construct": "The assay was performed with GST-tag RORγ LBD (25 ng/reaction, Creative Biomart); purchased Creative Biomart", "T2 sequence (P51449 269-508 limits assumed)": "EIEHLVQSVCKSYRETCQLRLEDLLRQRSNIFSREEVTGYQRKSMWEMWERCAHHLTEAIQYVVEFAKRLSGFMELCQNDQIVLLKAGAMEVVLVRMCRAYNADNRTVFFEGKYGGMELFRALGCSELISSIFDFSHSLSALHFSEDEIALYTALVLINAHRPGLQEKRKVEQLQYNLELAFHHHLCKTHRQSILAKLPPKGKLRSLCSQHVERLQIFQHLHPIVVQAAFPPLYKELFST", "assay": "LanthaScreen TR-FRET human RORγ coactivator assay", "assay_type": "biochemical", "conditions": "antagonist mode, read-out: Binding of RORγ LBD, IC50", "text": "In LanthaScreen TR-FRET RORγ coactivator assay, the RORγ LBD was constitutively active and the coactivator peptide (fluorescein-D22) was recruited in the absence of ligand, or compound (Fig. 2a). The binding of an antagonist to RORγ LBD causes a conformational change of the receptor, leading to a decrease in the affinity of the receptor for the coactivator peptide. The separation of the fluorescently labeled coactivator peptide from RORγ LBD from the receptor with the terbium-labeled antibody causes a decrease in the TR-FRET signal compared to those without compound. The assay was validated by detecting the ligand-independent recruitment of coactivator peptide in the presence or absence of RORγ LBD (2.5- to 3-fold assay window). Effects of the key compounds of the novel chemotype in Fig. 1, were tested in LanthaScreen TR-FRET RORγ coactivator assay.\nThe assay was performed with GST-tag RORγ LBD (25 ng/reaction, Creative Biomart), 0.6 μM Fluorescein-D22 coactivator peptide and 8 nM Tb anti-GST antibody (Invitrogen) at room temperature for 60 minutes. The fluorescent signals were measured with 520 nm emission and 495 nm excitation on Tecan Infinite. The data were calculated using DMSO control as 0% inhibition and non-protein control as 100% inhibition. IC50 values were calculated using non-linear regression analysis of GraphPad Prism in all assays."}, "[3]": {"test_system": "IL-17 secretion from human PBMCs", "assay": "Human IL-17 production assay using human PBMC", "assay_type": "cell-based", "conditions": "cytostim stimulation 72 h", "experimental": "To confirm cellular on-target effects, we investigated the inhibition of selected RORγ antagonists on RORγ-regulated IL-17 secretion using human PBMC. Human IL-17-producing cells were readily formed following cytostim stimulation. In human PBMC stimulated with cytostim for 72 h, differentiation of Th17 cells was confirmed by increased secretion of IL-17 (291 pg/mL) in cell culture supernatant compared to basal level of IL-17 (20 pg/mL IL-17 without cytostim stimulation), […] of IL-17 secretion.\nHuman PBMCs (Zenbio) in TexMACS media were stimulated by cytostim (Miltenyi) for 72 h following the vendor's instruction. Human IL-17A in cell culture supernatant was measured using AlphaLISA human IL-17A Biotin-free detection kit (Perkin Elmer) according to the manufacturer’s protocol."}}}
{"smiles": "CCS(=O)(=O)c1ccc([C@H](CCO)c2nc3c(Cl)c(N4CCC(F)(F)CC4)c(Cl)cc3[nH]2)cc1", "note": "[SHR168442, (S)-3-(4,6-dichloro-5-(4,4-difluoropiperidin-1-yl)-1H-benzo[d]imidazol-2-yl)-3-(4-(ethylsulfonyl)phenyl)propan-1-ol]", "values": [{"measurement": "half-life at 1 µM", "setting": "[1]", "value": 6.2, "unit": "min"}, {"measurement": "IL17", "setting": "[2]; 0.5% in Vaseline topical", "value": "190 ± 28", "unit": "fg/mL"}, {"measurement": "IL-6", "setting": "[2]; 0.5% in Vaseline topical", "value": "124 ± 32", "unit": "fg/mL"}, {"measurement": "TNFα", "setting": "[2]; 0.5% in Vaseline topical", "value": "5495 ± 837", "unit": "fg/mL"}, {"measurement": "Thickness of the back skin", "setting": "[2]; 0.5% in Vaseline topical", "value": "0.452 ± 0.020", "unit": "mm"}, {"measurement": "clinical scores", "setting": "[2]; 0.5%, 2%, 8% in Vaseline topical, scale 0 to 4", "value": "reduce clinical scores in a dose-dependent manner"}, {"measurement": "IL17", "setting": "[2]; 2% in Vaseline topical", "value": "172 ± 38", "unit": "fg/mL"}, {"measurement": "IL-6", "setting": "[2]; 2% in Vaseline topical", "value": "112 ± 43", "unit": "fg/mL"}, {"measurement": "TNFα", "setting": "[2]; 2% in Vaseline topical", "value": "4284 ± 804", "unit": "fg/mL"}, {"measurement": "Thickness of the back skin", "setting": "[2]; 2% in Vaseline topical", "value": "0.436 ± 0.019", "unit": "mm"}, {"measurement": "IL17", "setting": "[2]; 8% in Vaseline topical", "value": "185 ± 35", "unit": "fg/mL"}, {"measurement": "IL-6", "setting": "[2]; 8% in Vaseline topical", "value": "123 ± 37", "unit": "fg/mL"}, {"measurement": "TNFα", "setting": "[2]; 8% in Vaseline topical", "value": "3380 ± 491", "unit": "fg/mL"}, {"measurement": "Thickness of the back skin", "setting": "[2]; 8% in Vaseline topical", "value": "0.330 ± 0.015", "unit": "mm"}, {"measurement": "reduction of skin thickness", "setting": "[2]; 8% topical, relative to vehicle and naïve group", "value": 97, "unit": "%"}, {"measurement": "body weight", "setting": "[2]; all treatment groups", "value": "no significant body weight loss"}, {"measurement": "% Response Average", "setting": "ADORA2A; Agonist", "value": 7.3, "unit": "%"}, {"measurement": "% Response Replicate 1", "setting": "ADORA2A; Agonist", "value": 0.0, "unit": "%"}, {"measurement": "% Response Replicate 2", "setting": "ADORA2A; Agonist", "value": 14.7, "unit": "%"}, {"measurement": "% Response Average", "setting": "ADORA2A; Antagonist", "value": 15.1, "unit": "%"}, {"measurement": "% Response Replicate 1", "setting": "ADORA2A; Antagonist", "value": 5.4, "unit": "%"}, {"measurement": "% Response Replicate 2", "setting": "ADORA2A; Antagonist", "value": 24.9, "unit": "%"}, {"measurement": "IC50", "setting": "RORγ LBD", "value": "35 ± 9", "unit": "nM"}, {"measurement": "EC50", "setting": "[3]", "value": "20 ± 6", "unit": "nM"}, {"measurement": "IC50", "setting": "[3]", "value": 20, "unit": "nM"}]}
